In patent US5527781A, “4-O-(aminoglycosyl)- or 4,6-di-O-(aminoglycosyl)-2,5-dideoxy-5,5-difluorostreptamine derivatives” (Zaidan Hojin Biseibutsu Kagaku Kenkyu Kai, priority 1990, dated 1996):
Values after ≈ are worked out from the molar mass of the structure shown. Read-outs that look alike come from different tables or passages of the source.

Legend:
Proteus rettgeri GN 311 = assay: MIC, standard serial dilution method; type: cell-based; conditions: Providencia rettgeri, GN311; Proteus rettgeri GN 311; Mueller-Hinton agar, 37° C; read-out: MIC
Escherichia coli K-12 = assay: MIC, standard serial dilution method; type: cell-based; conditions: K12
[1] = test system: Pseudomonas aeruginosa GN 315; assay: MIC, standard serial dilution method; type: cell-based; conditions: GN315
[2] = test system: Klebsiella pneumoniae 22#3038; assay: MIC, standard serial dilution method; type: cell-based; conditions: resistance mechanism APH(3')-II, ANT(2"), Mueller-Hinton agar, 37° C
Bacillus subtilis PCI219 = assay: MIC, standard serial dilution method; type: cell-based; conditions: Mueller-Hinton agar, 37° C
[3] = test system: Escherichia coli K-12 LA 290 R55; assay: microbe, parasite or virus in culture; type: cell-based; conditions: K12LA290R55; Escherichia coli K-12 LA 290 R55; resistance mechanism ANT(2"); Mueller-Hinton agar, 37° C
Serratia marcescens = assay: MIC, standard serial dilution method; type: cell-based; conditions: Mueller-Hinton agar, 37° C
[4] = test system: Staphylococcus aureus 209P; assay: MIC, standard serial dilution method; type: cell-based; conditions: Mueller-Hinton agar, 37° C
[5] = test system: Corynebacterium bovis 1810; assay: MIC, standard serial dilution method; type: cell-based; conditions: Mueller-Hinton agar, 37° C
Mycobacterium 607 = assay: MIC, standard serial dilution method; type: cell-based; conditions: Mueller-Hinton agar, 37° C
[6] = test system: Staphylococcus aureus Ap01; assay: MIC, standard serial dilution method; type: cell-based; conditions: resistance mechanism ANT(4'), Mueller-Hinton agar, 37° C
Escherichia coli JR225 = assay: microbe, parasite or virus in culture; type: cell-based; conditions: resistance mechanism AAC(3), Mueller-Hinton agar, 37° C
[7] = test system: Escherichia coli K-12 ML 1629; assay: microbe, parasite or virus in culture; type: cell-based; conditions: K12ML1629
[8] = test system: Pseudomonas aeruginosa A3; assay: MIC, standard serial dilution method; type: cell-based; conditions: Mueller-Hinton agar, 37° C
Escherichia coli K-12 R5 = assay: microbe, parasite or virus in culture; type: cell-based; conditions: K12R5; Escherichia coli K-12 R5; resistance mechanism AAC(6'); Mueller-Hinton agar, 37° C
[9] = test system: Escherichia coli JR66/W677; assay: microbe, parasite or virus in culture; type: cell-based; conditions: resistance mechanism APH(3')-II, ANT(2"), Mueller-Hinton agar, 37° C
Providencia sp. Pv 16 = assay: MIC, standard serial dilution method; type: cell-based; conditions: SP.PV16, resistance mechanism AAC(2'), Mueller-Hinton agar, 37° C
in vivo = conditions: mouse, iv
From the text: Further, in order to estimate acute toxicity of the compound of the general formula (I) according to this invention, some examples of the compounds of this invention were independently dissolved in water to prepare aqueous solutions (as adjusted to pH 7 by addition of hydrochloric acid). […] The tested compounds of this invention are expressed by the same abbreviations as in Table 1. […] The comparative compounds as tested are also expressed by the same abbreviations as in Table 1.

[10] = Escherichia coli K-12, Mueller-Hinton agar, 37° C, read-out: MIC
[11] = Pseudomonas aeruginosa GN 315, resistance mechanism AAC(6'), Mueller-Hinton agar, 37° C, read-out: MIC
[12] = Escherichia coli K-12 ML 1629, resistance mechanism APH(3')-I, Mueller-Hinton agar, 37° C, read-out: MIC

| SMILES | MIC (Proteus rettgeri GN 311) [µg/mL] | MIC (Escherichia coli K-12; [10]) [µg/mL] | MIC [2] [µg/mL] | MIC (Bacillus subtilis PCI219) [µg/mL] | MIC [3] [µg/mL] | MIC (Serratia marcescens) [µg/mL] | MIC [4] [µg/mL] | MIC [5] [µg/mL] | MIC [1, 11] [µg/mL] | MIC (Mycobacterium 607) [µg/mL] | MIC [6] [µg/mL] | MIC (Escherichia coli JR225) [µg/mL] | MIC [7, 12] [µg/mL] | MIC [8] [µg/mL] | MIC (Escherichia coli K-12 R5) [µg/mL] | MIC (Providencia sp. Pv 16) [µg/mL] | LD50 (in vivo; pH 7) [mg/kg] | other results |
| --- | --- | --- | --- | --- | --- | --- | --- | --- | --- | --- | --- | --- | --- | --- | --- | --- | --- | --- |
| NC[C@@H]1CC[C@@H](N)[C@@H](O[C@H]2[C@H](O)[C@@H](O[C@H]3O[C@H](CO)[C@@H](O)[C@H](N)[C@H]3O)[C@H](N)C[C@@H]2N)O1 [DKB, 3',4'-dideoxy-kanamycin B, reference compound] | < 0.2 | 0.39 (≈ 0.864 µM) | 50 (≈ 111 µM) | < 0.2 |  |  |  |  |  |  |  |  |  |  |  |  |  | MIC ([1]; Pseudomonas aeruginosa): 100 µg/mL (≈ 221 µM) |
| NC[C@H]1O[C@H](O[C@H]2[C@H](O)[C@@H](O[C@H]3O[C@H](CO)[C@@H](O)[C@H](N)[C@H]3O)[C@H](N)C[C@@H]2N)[C@H](O)[C@@H](O)[C@@H]1O [KMA, kanamycin A, reference compound] | 0.78 (≈ 1.61 µM) |  | > 100 | 0.78 (≈ 1.61 µM) | 50 (≈ 103 µM) | 12.5 (≈ 25.8 µM) | 1.56 (≈ 3.22 µM) | 12.5 (≈ 25.8 µM) | > 100 | 6.25 (≈ 12.9 µM) | 25 (≈ 51.6 µM) | 3.12 (≈ 6.44 µM) | > 100 | 6.25 (≈ 12.9 µM) | > 100 | 3.12 (≈ 6.44 µM) |  | MIC (Escherichia coli K-12; Escherichia coli): 0.78 µg/mL (≈ 1.61 µM); MIC [9]: > 100 µg/mL |
| NC[C@@H]1CC[C@@H](N)[C@@H](O[C@H]2[C@H](F)[C@@H](O[C@H]3O[C@H](CO)[C@@H](O)[C@H](N)[C@H]3O)[C@H](N)C[C@@H]2N)O1 [Compound 5F-DKB, 5,3',4'-trideoxy-5-fluorokanamycin B, reference compound] |  | 3.12 (≈ 6.88 µM) | 6.25 (≈ 13.8 µM) |  |  |  |  | 6.25 (≈ 13.8 µM) |  | 6.25 (≈ 13.8 µM) | 3.12 (≈ 6.88 µM) |  | 3.12 (≈ 6.88 µM) |  |  |  | ~135 |  |
| NC[C@H]1O[C@H](O[C@H]2[C@H](F)[C@@H](O[C@H]3O[C@H](CO)[C@@H](O)[C@H](N)[C@H]3O)[C@H](N)C[C@@H]2N)[C@H](N)[C@@H](O)[C@@H]1O [5-deoxy-5-fluorokanamycin B, reference compound] |  |  |  |  |  |  |  |  |  |  |  |  |  |  |  |  |  | LD50 (in vivo): ~135 mg/kg |
| CN[C@@H]1[C@@H](O)[C@@H](O[C@H]2[C@H](NC(=O)[C@@H](O)CCN)C[C@H](N)[C@@H](O[C@H]3O[C@H]([C@@H](C)N)CC[C@H]3N)C2(F)F)OC[C@]1(C)O [5FF-Genta-C2-AHB, 1-N-[(S)-4-amino-2-hydroxybutyryl]-5-deoxy-5,5-difluorogentamicin C2] | 0.78 (≈ 1.33 µM) | < 0.2 | 1.56 (≈ 2.67 µM) | 0.2 (≈ 0.342 µM) | 0.2 (≈ 0.342 µM) | 3.12 (≈ 5.34 µM) | 0.78 (≈ 1.33 µM) | 0.2 (≈ 0.342 µM) | 100 (≈ 171 µM) | 3.12 (≈ 5.34 µM) | 12.5 (≈ 21.4 µM) | < 0.2 | 0.39 (≈ 0.667 µM) | 3.12 (≈ 5.34 µM) | 3.12 (≈ 5.34 µM) | 6.25 (≈ 10.7 µM) |  | MIC [9]: 0.78 µg/mL (≈ 1.33 µM) |
| NCC[C@H](O)C(=O)N[C@@H]1C[C@H](N)[C@@H](O[C@H]2O[C@H](CN)CC[C@H]2N)[C@H](F)[C@H]1O[C@H]1O[C@H](CO)[C@@H](O)[C@H](N)[C@H]1O [Compound 5F-DKB-AHB, 1-N-[4-amino-2-(S)-hydroxybutyryl]-5,3',4'-trideoxy-5-fluorokanamycin B, reference compound] |  | < 0.2 | 0.78 (≈ 1.41 µM) | < 0.2 | 0.39 (≈ 0.703 µM) | 3.12 (≈ 5.63 µM) |  |  |  |  | 1.56 (≈ 2.81 µM) | < 0.2 | 0.39 (≈ 0.703 µM) |  | 12.5 (≈ 22.5 µM) | 0.39 (≈ 0.703 µM) |  |  |
| NCC[C@H](O)C(=O)N[C@@H]1C[C@H](N)[C@@H](O[C@H]2O[C@H](CN)CC[C@H]2N)[C@H](O)[C@H]1O[C@H]1O[C@H](CO)[C@@H](O)[C@H](N)[C@H]1O [HBK, 1-N-[4-amino-(S)-2-hydroxybutyryl]-3',4'-dideoxykanamycin B, reference compound] |  |  |  |  |  |  |  |  |  |  |  |  |  |  |  |  | 70 |  |
| NCC[C@H](O)C(=O)N[C@@H]1C[C@H](N)[C@@H](O[C@H]2O[C@H](CN)[C@@H](O)C[C@H]2N)[C@H](F)[C@H]1O[C@H]1O[C@H](CO)[C@@H](O)[C@H](N)[C@H]1O [Compound 5F-TOB-AHB, 1-N-[4-amino-2-(S)-hydroxybutyryl]-5,3'-dideoxy-5-fluorokanamycinB, reference compound] |  | < 0.2 | 0.78 (≈ 1.37 µM) |  | 0.39 (≈ 0.683 µM) | 3.12 (≈ 5.47 µM) |  |  | 1.56 (≈ 2.73 µM) | 0.39 (≈ 0.683 µM) | 3.12 (≈ 5.47 µM) | < 0.2 | 0.39 (≈ 0.683 µM) | < 0.2 |  | 0.39 (≈ 0.683 µM) |  |  |
| NC[C@H]1O[C@H](O[C@H]2[C@H](O)[C@@H](O[C@H]3O[C@H](CO)[C@@H](O)[C@H](N)[C@H]3O)[C@H](N)C[C@@H]2N)[C@H](N)C[C@@H]1O [TOB, 3'-deoxykanamycin B, reference compound] | 0.39 (≈ 0.834 µM) | 0.39 (≈ 0.834 µM) | 12.5 (≈ 26.7 µM) | < 0.2 | 12.5 (≈ 26.7 µM) | 3.12 (≈ 6.67 µM) | < 0.2 | 1.56 (≈ 3.34 µM) | 25 (≈ 53.5 µM) | 0.39 (≈ 0.834 µM) | 12.5 (≈ 26.7 µM) |  |  |  | 25 (≈ 53.5 µM) | 6.25 (≈ 13.4 µM) | ~80 | MIC ([7]; Escherichia coli): 0.78 µg/mL (≈ 1.67 µM) |
| NC[C@H]1O[C@H](O[C@@H]2[C@@H](N)C[C@@H](N)[C@H](O[C@H]3O[C@H](CO)[C@@H](O)[C@H](N)[C@H]3O)C2(F)F)[C@H](N)[C@@H](O)[C@@H]1O [Compound 5FF-KMB, 5-deoxy-5,5-difluorokanamycin B] | 0.39 (≈ 0.775 µM) | 0.39 (≈ 0.775 µM) |  | 0.39 (≈ 0.775 µM) | 3.12 (≈ 6.2 µM) | 6.25 (≈ 12.4 µM) | 0.78 (≈ 1.55 µM) | 1.56 (≈ 3.1 µM) | > 100 | 1.56 (≈ 3.1 µM) | 50 (≈ 99.3 µM) | 3.12 (≈ 6.2 µM) | > 100 | 3.12 (≈ 6.2 µM) | 100 (≈ 199 µM) | 12.5 (≈ 24.8 µM) |  |  |
| NCC[C@H](O)C(=O)N[C@@H]1C[C@H](N)[C@@H](O[C@H]2O[C@H](CN)[C@@H](O)[C@H](O)[C@H]2O)[C@H](O)[C@H]1O[C@H]1O[C@H](CO)[C@@H](O)[C@H](N)[C@H]1O [Amikacin, amikacin, reference compound] | 1.56 (≈ 2.66 µM) |  | 3.12 (≈ 5.33 µM) | 0.39 (≈ 0.666 µM) | 1.56 (≈ 2.66 µM) | 3.12 (≈ 5.33 µM) |  | 1.56 (≈ 2.66 µM) | 50 (≈ 85.4 µM) |  | > 100 |  | 1.56 (≈ 2.66 µM) |  | 100 (≈ 171 µM) | 1.56 (≈ 2.66 µM) | > 300 |  |
| NC[C@H]1O[C@H](O[C@@H]2[C@@H](N)C[C@@H](N)[C@H](O[C@H]3O[C@H](CO)[C@@H](O)[C@H](N)[C@H]3O)C2(F)F)[C@H](O)[C@@H](O)[C@@H]1O [Compound 5FF-KMA, 5-deoxy-5,5-difluorokanamycin A] | 1.56 (≈ 3.09 µM) |  |  | 0.78 (≈ 1.55 µM) | 12.5 (≈ 24.8 µM) | 12.5 (≈ 24.8 µM) | 3.12 (≈ 6.18 µM) | 12.5 (≈ 24.8 µM) | > 100 | 3.12 (≈ 6.18 µM) | 50 (≈ 99.1 µM) | 1.56 (≈ 3.09 µM) | > 100 | 6.25 (≈ 12.4 µM) | > 100 | 12.5 (≈ 24.8 µM) | > 300 | MIC (Escherichia coli K-12; Escherichia coli): 0.78 µg/mL (≈ 1.55 µM) |
| NC[C@H]1O[C@H](O[C@H]2[C@H](F)[C@@H](O[C@H]3O[C@H](CO)[C@@H](O)[C@H](N)[C@H]3O)[C@H](N)C[C@@H]2N)[C@H](N)C[C@@H]1O [Compound 5F-TOB, 5,3'-dideoxy-5-fluorokanamycin B, reference compound] |  |  | 3.12 (≈ 6.65 µM) | < 0.2 |  |  |  |  |  |  |  |  |  |  |  | 3.12 (≈ 6.65 µM) | ~180 |  |
| NC[C@H]1O[C@H](O[C@H]2[C@H](O)[C@@H](O[C@H]3O[C@H](CO)[C@@H](O)[C@H](N)[C@H]3O)[C@H](N)C[C@@H]2N)[C@H](N)[C@@H](O)[C@@H]1O [KMB, kanamycin B, reference compound] | 0.2 (≈ 0.414 µM) | 0.39 (≈ 0.807 µM) | > 100 | < 0.2 |  |  | 0.39 (≈ 0.807 µM) |  |  |  |  |  | > 100 | 1.56 (≈ 3.23 µM) |  | 12.5 (≈ 25.9 µM) |  |  |
